Our source for the TGI and GI50 values is PubChem BioAssay (NCI).

As usually defined, the TGI is the concentration at which net growth stops. In general, GI50 refers to the concentration at which growth is held to half of that of the control.

Some test systems named below: MOLT-4 leukemia; ACHN renal; CCRF-CEM leukemia; HCT-15 colon; UO-31 renal; SK-MEL-5 melanoma; U251 CNS; SNB-75 CNS; MALME-3M melanoma; NCI-H226 lung.
Common to all, as to assay: DTP human tumour cell line panel, 48 h

Each structure is given as a SMILES string.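 1) Cells in 96-well plates. 2) Compound, 48 h, 5 concentrations. 3) Linear interpolation between surrounding doses. 4) Unreached endpoint = highest concentration. Here, GI50 denotes the concentration required for 50% inhibition of growth. Definition used: TGI = concentration required for complete inhibition of growth.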

With `C=CC1(C)/C(=N\O)C(C)(CC)C(=O)N1O` (centres undefined), the TGI in the assay on MOLT-4 leukemia, in the assay on ACHN renal, in the assay with CCRF-CEM leukemia, in the assay on HCT-15 colon, in the assay on UO-31 renal and in the assay with SK-MEL-5 melanoma was more than 100 µM throughout. Besides, the TGI in the assay with U251 CNS, in the assay on SNB-75 CNS and in the assay with MALME-3M melanoma was more than 100 µM each time.
As to `CO/N=C(\COc1ccc2c(=O)cc(-c3ccccc3)oc2c1)c1ccc(OC)cc1`, the GI50 in the assay with NCI-H226 lung, with ACHN renal, in the assay with CCRF-CEM leukemia, with HCT-15 colon, with UO-31 renal and in the assay with SK-MEL-5 melanoma was more than 100 µM in each case. Further, the figures for the GI50 in the assay with U251 CNS, in the assay with SNB-75 CNS and in the assay with MALME-3M melanoma were more than 100 µM, 38.2 µM and more than 100 µM, respectively. The TGI in the assay on NCI-H226 lung, in the assay on ACHN renal, in the assay with CCRF-CEM leukemia, in the assay with HCT-15 colon, in the assay with UO-31 renal and in the assay on SK-MEL-5 melanoma was more than 100 µM each time. Moreover, the TGI in the assay with U251 CNS, in the assay with SNB-75 CNS and in the assay on MALME-3M melanoma was more than 100 µM throughout.
`COc1ccc(OC)c(-c2cn3nc(-c4c[nH]c5ccc(Br)cc45)sc3n2)c1`: the GI50 was 10.3 µM in the assay with NCI-H226 lung; 2.02 µM in the assay with ACHN renal; 3.73 µM with CCRF-CEM leukemia; 2.11 µM with HCT-15 colon; 1.67 µM in the assay on UO-31 renal; 3.86 µM in the assay with SK-MEL-5 melanoma. In addition, the GI50 with U251 CNS was 2.02 µM; in the assay with SNB-75 CNS it was 3.72 µM; in the assay with MALME-3M melanoma it was 2.25 µM. Besides, the TGI was 39.8 µM with NCI-H226 lung; 6.49 µM in the assay on ACHN renal; more than 100 µM in the assay with CCRF-CEM leukemia; 5.47 µM in the assay with HCT-15 colon; 11.2 µM in the assay with UO-31 renal; 15.2 µM with SK-MEL-5 melanoma. Moreover, the TGI in the assay with U251 CNS was determined as 4.09 µM; in the assay on SNB-75 CNS, 24.3 µM; with MALME-3M melanoma it was 4.93 µM.
Take `COc1cccc2c1C(=O)c1c(O)c3c(c(O)c1C2=O)C[C@@](O)(C(=O)COC(=O)c1cccnc1)C[C@@H]3OC1CC(N)C(O)C(C)O1` (some centres undefined): the GI50 in the assay with MOLT-4 leukemia was 0.0369 µM; with ACHN renal it was 0.117 µM; in the assay with CCRF-CEM leukemia, 0.0574 µM; in the assay with HCT-15 colon, 1.07 µM; in the assay with UO-31 renal, 0.46 µM; with SK-MEL-5 melanoma, 0.118 µM. Further, the results for the GI50 in the assay on U251 CNS, in the assay with SNB-75 CNS and in the assay on MALME-3M melanoma were 0.0665 µM, 0.084 µM and 0.115 µM, respectively. The TGI was determined as 0.684 µM in the assay on MOLT-4 leukemia; 1.19 µM with CCRF-CEM leukemia; 16.8 µM with HCT-15 colon; 2.89 µM with UO-31 renal; 0.252 µM in the assay on SK-MEL-5 melanoma; 0.592 µM with U251 CNS. The results for the TGI in the assay with SNB-75 CNS and in the assay on MALME-3M melanoma were 0.534 µM and 0.353 µM, respectively.
For `CCC1N2CCCCC2[C@@H]2c3[nH]c4ccccc4c3CCN12` (some centres undefined), the TGI with MOLT-4 leukemia, in the assay on ACHN renal, in the assay on CCRF-CEM leukemia, in the assay on HCT-15 colon, in the assay on UO-31 renal and with SK-MEL-5 melanoma was more than 100 µM each time. In addition, the TGI with U251 CNS, with SNB-75 CNS and in the assay with MALME-3M melanoma was more than 100 µM in each case.
Regarding `O=c1cc(-c2ccccc2)oc2cc(OCc3cn(Cc4ccc(F)cc4)nn3)cc(O)c12`, the GI50 in the assay with NCI-H226 lung is 3.51 µM; in the assay with MOLT-4 leukemia, more than 100 µM; with ACHN renal it was 6.23 µM; in the assay with CCRF-CEM leukemia, more than 100 µM; in the assay on SK-MEL-5 melanoma it was more than 100 µM; in the assay with U251 CNS it was 13.9 µM. The figures for the GI50 in the assay on SNB-75 CNS and in the assay with MALME-3M melanoma were 3.74 µM and 5.06 µM, respectively. Also, the TGI with NCI-H226 lung, with MOLT-4 leukemia, in the assay on ACHN renal, with CCRF-CEM leukemia, in the assay on SK-MEL-5 melanoma and in the assay on U251 CNS was more than 100 µM each time. Also, the TGI in the assay with SNB-75 CNS was 28 µM; with MALME-3M melanoma it was more than 100 µM.
`N#CC(C(=N/NC(N)=S)/C(=N\NC(N)=S)C(C#N)c1ccccc1)c1ccccc1` (centres undefined): the TGI with NCI-H226 lung, in the assay with MOLT-4 leukemia, with ACHN renal, in the assay with CCRF-CEM leukemia, with HCT-15 colon and with UO-31 renal was more than 10 µM throughout. Besides, the TGI in the assay with U251 CNS, in the assay on SNB-75 CNS and with MALME-3M melanoma was more than 10 µM each time.
In the case of `CCC(=O)[O-].CCC(=O)[O-].N.N.N.N.[Co+3].[O-][Cl+3]([O-])([O-])[O-]`, the GI50 with MOLT-4 leukemia, in the assay on ACHN renal, in the assay on CCRF-CEM leukemia, in the assay on HCT-15 colon, with UO-31 renal and with SK-MEL-5 melanoma was more than 100 µM throughout. For the same compound, the GI50 with U251 CNS, with SNB-75 CNS and with MALME-3M melanoma was more than 100 µM each time. In addition, the TGI with MOLT-4 leukemia, with ACHN renal, with CCRF-CEM leukemia, with HCT-15 colon, in the assay with UO-31 renal and in the assay on SK-MEL-5 melanoma was more than 100 µM each time. Besides, the TGI in the assay with U251 CNS, in the assay with SNB-75 CNS and in the assay with MALME-3M melanoma was more than 100 µM in each case.
`C#Cc1cccc(N2C(=O)CC(=P(c3ccccc3)(c3ccccc3)c3ccccc3)C2=O)c1`: the TGI was more than 100 µM in the assay with NCI-H226 lung; more than 100 µM in the assay with MOLT-4 leukemia; more than 100 µM in the assay on ACHN renal; more than 100 µM in the assay with CCRF-CEM leukemia; more than 100 µM in the assay on UO-31 renal; 83.7 µM in the assay with SK-MEL-5 melanoma. Also, the TGI with U251 CNS, with SNB-75 CNS and in the assay on MALME-3M melanoma was more than 100 µM in each case.
As for `CC(C)c1cccc2sc(NC(=O)C(=O)CC(=O)c3ccc(F)cc3)nc12`, the TGI in the assay on NCI-H226 lung, in the assay on ACHN renal, in the assay with CCRF-CEM leukemia, in the assay on HCT-15 colon, in the assay on UO-31 renal and in the assay with SK-MEL-5 melanoma was more than 100 µM in each case. Further, the TGI with U251 CNS, in the assay with SNB-75 CNS and with MALME-3M melanoma was more than 100 µM throughout.
In the case of `CN(C)CC1CCC(CN(C)C)C1=NO` (centres undefined), the TGI in the assay with MOLT-4 leukemia, in the assay with ACHN renal, with CCRF-CEM leukemia, in the assay with HCT-15 colon, in the assay on UO-31 renal and in the assay with SK-MEL-5 melanoma was more than 100 µM in each case. In addition, the TGI in the assay with SNB-75 CNS is more than 10 µM; in the assay with MALME-3M melanoma, more than 100 µM.
As to `CN(C)c1ccc2c(SCC(=O)OCC(=O)[C@@]3(O)CC[C@H]4[C@@H]5CCC6=CC(=O)C=C[C@]6(C)[C@H]5C(=O)C[C@@]43C)c3ccc(N(C)C)cc3nc2c1`, the TGI with NCI-H226 lung is 47.5 µM; in the assay on MOLT-4 leukemia it was more than 100 µM; in the assay on ACHN renal, 20 µM; in the assay with HCT-15 colon, 32.1 µM; in the assay with UO-31 renal it was 24.8 µM; with SK-MEL-5 melanoma it was more than 100 µM. The values for the TGI in the assay on U251 CNS, with SNB-75 CNS and in the assay on MALME-3M melanoma were more than 100 µM, more than 89.7 µM and more than 100 µM, respectively.
Consider `[O-]c1c(-c2ccccc2)[se]c(-c2ccccc2)[n+]1-c1ccccc1`, for which the TGI in the assay on NCI-H226 lung stood at 9.11 µM; in the assay on MOLT-4 leukemia, 92.9 µM; in the assay with CCRF-CEM leukemia it was 31.8 µM; in the assay on HCT-15 colon, 31.2 µM; with UO-31 renal, 9.84 µM; in the assay on SK-MEL-5 melanoma, 26.5 µM. Moreover, the TGI in the assay on SNB-75 CNS turned out to be 22 µM; in the assay with MALME-3M melanoma it was 29.3 µM.
As for `NC(N)=NS(=O)(=O)c1ccc(NC(=O)c2ccc(Cl)c3c(Nc4ccc(S(=O)(=O)N=C(N)N)cc4)c4ccccc4nc23)cc1`, the TGI with MOLT-4 leukemia, with ACHN renal, in the assay on CCRF-CEM leukemia, in the assay with HCT-15 colon, in the assay on UO-31 renal and in the assay with U251 CNS was more than 100 µM in each case. In addition, the TGI with SNB-75 CNS was 98.5 µM; in the assay on MALME-3M melanoma it was more than 100 µM.
In the case of `CN1C(=O)NC2(O)c3ccccc3C(=O)C12O` (centres undefined), the TGI in the assay on MOLT-4 leukemia, in the assay with CCRF-CEM leukemia, in the assay on HCT-15 colon, with UO-31 renal, with U251 CNS and in the assay on SNB-75 CNS was more than 100 µM each time. Also, the TGI in the assay with MALME-3M melanoma was more than 100 µM.
On to `c1ccc2c(c1)[Se]c1ccccc1[Se]2`, for which the TGI in the assay on NCI-H226 lung, in the assay on MOLT-4 leukemia, with ACHN renal, in the assay on CCRF-CEM leukemia, with UO-31 renal and in the assay on SK-MEL-5 melanoma was more than 100 µM each time. Also, the TGI in the assay on U251 CNS was more than 100 µM; in the assay on SNB-75 CNS it was 64.9 µM; with MALME-3M melanoma, more than 100 µM.
Turning to `CCCC(=O)C(CC)/C(CCC(=O)N(Cc1ccccc1)Cc1ccccc1)=N/NC(=O)C[N+](C)(C)C` (centres undefined), the TGI with NCI-H226 lung, with MOLT-4 leukemia, with ACHN renal, in the assay on CCRF-CEM leukemia, in the assay on UO-31 renal and in the assay on SK-MEL-5 melanoma was more than 100 µM each time. The TGI in the assay with U251 CNS, in the assay on SNB-75 CNS and with MALME-3M melanoma was more than 100 µM throughout.
On to `COC(=O)c1c(C(=O)OC)c(C(=O)OC)c(C(=O)OC)c1C(=O)OC`, for which the TGI in the assay with MOLT-4 leukemia, with ACHN renal, in the assay with CCRF-CEM leukemia, with HCT-15 colon, with UO-31 renal and in the assay with SK-MEL-5 melanoma was more than 100 µM in each case. The TGI with U251 CNS, in the assay with SNB-75 CNS and in the assay with MALME-3M melanoma was more than 100 µM each time.
